Measurements from US20260176320A1, “MODULATORS OF G-PROTEIN COUPLED RECEPTORS” (priority 2018, published 2026).
Where two headings read alike, the source gives them in different places.

Tests used:
Type in all cases: cell-based
[1] = target: T1, GLP-1R (Homo sapiens, UniProt P43220); experiment: HitHunter cAMP assay (GLP-1R); settings: for Emax: read-out: (Emax) GLP-1R
Procedure, shortened: (§1)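 Suspension cells (10,000/well) in HBSS with 10 mM HEPES, 625 μM IBMX, 0.2% BSA exposed to 22-point 2-fold agonist series in duplicate for 30 min at room temperature. cAMP measured by antibody immunocompetition with overnight development, luminescence read-out.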

[2] = target: T1, GLP-1R; experiment: PathHunter β-arrestin assay
Procedure, shortened: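 Cells (5,000/well) plated overnight, then exposed to a 22-point 2-fold agonist dilution series in medium with 0.2% BSA for 90 min at 37 °C, 5% CO2. PathHunter detection reagent added; after 3 h at room temperature in the dark, luminescence read.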

[3] = target: T2, GIP-R (Homo sapiens, UniProt P48546); experiment: HitHunter cAMP assay (GIP-R); settings: for Emax: read-out: (Emax) GIP-R
T2 sequence (P48546 22-466): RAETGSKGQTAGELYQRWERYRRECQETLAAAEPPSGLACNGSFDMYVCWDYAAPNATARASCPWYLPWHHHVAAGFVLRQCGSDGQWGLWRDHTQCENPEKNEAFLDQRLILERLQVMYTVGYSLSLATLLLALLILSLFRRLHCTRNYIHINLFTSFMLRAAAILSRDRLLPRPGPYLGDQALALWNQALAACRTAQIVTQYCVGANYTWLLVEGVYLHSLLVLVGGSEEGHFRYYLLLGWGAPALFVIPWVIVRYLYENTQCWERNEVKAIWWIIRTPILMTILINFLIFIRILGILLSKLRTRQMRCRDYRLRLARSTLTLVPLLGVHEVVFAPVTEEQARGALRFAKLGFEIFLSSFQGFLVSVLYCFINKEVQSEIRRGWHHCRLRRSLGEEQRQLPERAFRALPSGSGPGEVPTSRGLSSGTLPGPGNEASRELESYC
Procedure, shortened: as §1

[4] = Table 3, cAMP, read-out: EC50 GLP-1R/nM
[5] = Table 3A, cAMP, read-out: EC50 GLP-1R/nM
[6] = PathHunter β-arrestin assay, read-out: β-arrestin activity EC50
[7] = Table 3, cAMP, read-out: EC50 GIP-R/nM
[8] = Table 3A, cAMP, read-out: EC50 GIP-R/nM

T1 sequence (P43220 24-463): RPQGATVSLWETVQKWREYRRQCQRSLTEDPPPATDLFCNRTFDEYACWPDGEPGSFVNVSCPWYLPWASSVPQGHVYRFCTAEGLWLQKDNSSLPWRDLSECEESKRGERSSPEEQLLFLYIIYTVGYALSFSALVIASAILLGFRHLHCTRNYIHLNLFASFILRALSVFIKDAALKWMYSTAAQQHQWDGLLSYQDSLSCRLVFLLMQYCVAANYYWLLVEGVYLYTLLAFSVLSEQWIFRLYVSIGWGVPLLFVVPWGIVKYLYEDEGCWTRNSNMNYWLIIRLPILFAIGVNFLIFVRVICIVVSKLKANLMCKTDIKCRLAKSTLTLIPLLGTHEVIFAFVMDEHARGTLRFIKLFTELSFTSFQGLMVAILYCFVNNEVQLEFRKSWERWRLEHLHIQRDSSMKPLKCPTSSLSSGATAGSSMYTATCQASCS

| Structure (SMILES) | Emax ([1]; Table 3, cAMP) | EC50 [1, 4] | Emax ([1]; Table 3A, cAMP) | EC50 [1, 5] | EC50 [2, 6] | EC50 [3, 7] | EC50 [3, 8] | Emax at 1 µM ([3]; read-out: (Emax) GIP-R at 1 μM, Table 3, cAMP, at 1 μM) | EC50 ([1]; EC50 GLP-1R/nM, Table 3, cAMP) | EC50 ([1]; EC50 GLP-1R/nM, Table 3A, cAMP) | EC50 [2] | EC50 ([3]; EC50 GIP-R/nM, Table 3, cAMP) | EC50 ([3]; EC50 GIP-R/nM, Table 3A, cAMP) | Emax ([3]; Table 3, cAMP) | Emax ([3]; Table 3A, cAMP) | EC50 [1] | (Emax) GLP-1R ([1]; Table 3A, cAMP) | Emax [1] | EC50 ([1]; read-out: EC50 GLP-1R/nM, Table 3A, cAMP) | Emax [3] |
| --- | --- | --- | --- | --- | --- | --- | --- | --- | --- | --- | --- | --- | --- | --- | --- | --- | --- | --- | --- | --- |
| CC[C@H](C)[C@H](NC(=O)[C@H](CO)NC(=O)[C@H](Cc1ccc(O)cc1)NC(=O)[C@H](CC(=O)O)NC(=O)[C@H](CO)NC(=O)[C@@H](NC(=O)[C@H](Cc1ccccc1)NC(=O)[C@@H](NC(=O)CNC(=O)[C@H](CCC(=O)O)NC(=O)CNC(=O)CCCCN1C(=O)CSC1=O)[C@@H](C)O)[C@@H](C)O)C(=O)N[C@@H](Cc1ccc(O)cc1)C(=O)N[C@@H](CC(C)C)C(=O)N[C@@H](CC(=O)O)C(=O)N[C@@H](CCCCN)C(=O)N[C@@H](CCC(N)=O)C(=O)N[C@@H](C)C(=O)N[C@@H](C)C(=O)NC(C)(C)C(=O)N[C@@H](CCC(=O)O)C(=O)N[C@@H](Cc1ccccc1)C(=O)N[C@H](C(=O)N[C@@H](CC(N)=O)C(=O)N[C@@H](Cc1c[nH]c2ccccc12)C(=O)N[C@@H](CC(C)C)C(=O)N[C@@H](CC(C)C)C(=O)N[C@@H](C)C(=O)NCC(=O)NCC(=O)N1CCC[C@H]1C(=O)N[C@@H](CO)C(=O)N[C@@H](CO)C(=O)NCC(=O)N[C@@H](C)C(=O)N1CCC[C@H]1C(=O)N1CCC[C@H]1C(=O)N1CCC[C@H]1C(=O)N[C@@H](CO)C(=O)N[C@@H](CCCCN)C(N)=O)C(C)C [Compound 171] | 93 to 98% | 1 to 10 nM | 93 to 98% | 1 to 10 nM | > 1000 nM | > 1000 nM | > 1000 nM | 6.5% |  |  |  |  |  |  |  |  |  |  |  |  |
| CCCCCCCCCCCCCCCC(=O)N[C@@H](CCC(=O)NCCCC[C@H](NC(=O)[C@H](CO)NC(=O)[C@@H]1CCCN1C(=O)[C@@H]1CCCN1C(=O)[C@@H]1CCCN1C(=O)[C@H](C)NC(=O)CNC(=O)[C@H](CO)NC(=O)[C@H](CO)NC(=O)[C@@H]1CCCN1C(=O)CNC(=O)CNC(=O)[C@H](C)NC(=O)[C@H](CC(C)C)NC(=O)[C@H](CC(C)C)NC(=O)[C@H](Cc1c[nH]c2ccccc12)NC(=O)[C@H](CC(N)=O)NC(=O)[C@@H](NC(=O)[C@H](Cc1ccccc1)NC(=O)[C@H](CCC(=O)O)NC(=O)C(C)(C)NC(=O)[C@H](C)NC(=O)[C@H](C)NC(=O)[C@H](CCC(N)=O)NC(=O)[C@H](CCCCN)NC(=O)[C@H](CC(=O)O)NC(=O)[C@H](CC(C)C)NC(=O)[C@H](Cc1ccc(O)cc1)NC(=O)[C@@H](NC(=O)[C@H](CO)NC(=O)[C@H](Cc1ccc(O)cc1)NC(=O)[C@H](CC(=O)O)NC(=O)[C@H](CO)NC(=O)[C@@H](NC(=O)[C@H](Cc1ccccc1)NC(=O)[C@@H](NC(=O)CNC(=O)[C@H](CCC(=O)O)NC(=O)CSCC(=O)NCCN1C(=O)CCCC1=O)[C@@H](C)O)[C@@H](C)O)[C@@H](C)CC)C(C)C)C(N)=O)C(=O)O [Compound 123] | 104% |  | 104% |  |  |  |  |  | 1 to 10 nM | 1 to 10 nM | > 1000 nM | 0.1 to 1 nM | 0.1 to 1 nM | 111% | 111% |  |  |  |  |  |
| CCCCCCCCCCCCCCCC(=O)N[C@@H](CCC(=O)NCCCC[C@H](NC(=O)[C@H](CO)NC(=O)[C@@H]1CCCN1C(=O)[C@@H]1CCCN1C(=O)[C@@H]1CCCN1C(=O)[C@H](C)NC(=O)CNC(=O)[C@H](CO)NC(=O)[C@H](CO)NC(=O)[C@@H]1CCCN1C(=O)CNC(=O)CNC(=O)[C@H](C)NC(=O)[C@H](CC(C)C)NC(=O)[C@H](CC(C)C)NC(=O)[C@H](Cc1c[nH]c2ccccc12)NC(=O)[C@H](CC(N)=O)NC(=O)[C@@H](NC(=O)[C@H](Cc1ccccc1)NC(=O)[C@H](CCC(=O)O)NC(=O)C(C)(C)NC(=O)[C@H](C)NC(=O)[C@H](C)NC(=O)[C@H](CCC(N)=O)NC(=O)[C@H](CCCCN)NC(=O)[C@H](CC(=O)O)NC(=O)[C@H](CC(C)C)NC(=O)[C@H](Cc1ccc(O)cc1)NC(=O)[C@@H](NC(=O)[C@H](CO)NC(=O)[C@H](Cc1ccc(O)cc1)NC(=O)[C@H](CC(=O)O)NC(=O)[C@H](CO)NC(=O)[C@@H](NC(=O)[C@H](Cc1ccccc1)NC(=O)[C@@H](NC(=O)CNC(=O)[C@H](CCC(=O)O)NC(=O)CSCC(=O)NCCN1CCCOC1=O)[C@@H](C)O)[C@@H](C)O)[C@@H](C)CC)C(C)C)C(N)=O)C(=O)O [Compound 6] | 95% | 0.1 to 1 nM | 95% | 0.1 to 1 nM | > 1000 nM | 1 to 10 nM | 1 to 10 nM |  |  |  |  |  |  | 75% | 75% |  |  |  |  |  |
| CC[C@H](C)[C@H](NC(=O)[C@H](CO)NC(=O)[C@H](Cc1ccc(O)cc1)NC(=O)[C@H](CC(=O)O)NC(=O)[C@H](CO)NC(=O)[C@@H](NC(=O)[C@H](Cc1ccccc1)NC(=O)[C@@H](NC(=O)CNC(=O)[C@H](CCC(=O)O)NC(=O)C(C)(C)NC(=O)CCN1C(=O)CSC1=O)[C@@H](C)O)[C@@H](C)O)C(=O)N[C@@H](Cc1ccc(O)cc1)C(=O)N[C@@H](CC(C)C)C(=O)N[C@@H](CC(=O)O)C(=O)N[C@@H](CCCCN)C(=O)N[C@@H](CCC(N)=O)C(=O)N[C@@H](C)C(=O)N[C@@H](C)C(=O)NC(C)(C)C(=O)N[C@@H](CCC(=O)O)C(=O)N[C@@H](Cc1ccccc1)C(=O)N[C@H](C(=O)N[C@@H](CC(N)=O)C(=O)N[C@@H](Cc1c[nH]c2ccccc12)C(=O)N[C@@H](CC(C)C)C(=O)N[C@@H](CC(C)C)C(=O)N[C@@H](C)C(=O)NCC(=O)NCC(=O)N1CCC[C@H]1C(=O)N[C@@H](CO)C(=O)N[C@@H](CO)C(=O)NCC(=O)N[C@@H](C)C(=O)N1CCC[C@H]1C(=O)N1CCC[C@H]1C(=O)N1CCC[C@H]1C(=O)N[C@@H](CO)C(=O)N[C@@H](CCCCN)C(N)=O)C(C)C [Compound 130] | 114% | 0.1 to 1 nM | 114% | 0.1 to 1 nM | > 1000 nM | 1 to 10 nM | 1 to 10 nM |  |  |  |  |  |  | 64% | 64% |  |  |  |  |  |
| CCCCCCCCCCCCCCCC(=O)N[C@@H](CCC(=O)NCCCC[C@H](NC(=O)[C@H](CO)NC(=O)[C@@H]1CCCN1C(=O)[C@@H]1CCCN1C(=O)[C@@H]1CCCN1C(=O)[C@H](C)NC(=O)CNC(=O)[C@H](CO)NC(=O)[C@H](CO)NC(=O)[C@@H]1CCCN1C(=O)CNC(=O)CNC(=O)[C@H](C)NC(=O)[C@H](CC(C)C)NC(=O)[C@H](CC(C)C)NC(=O)[C@H](Cc1c[nH]c2ccccc12)NC(=O)[C@H](CC(N)=O)NC(=O)[C@@H](NC(=O)[C@H](Cc1ccccc1)NC(=O)[C@H](CCC(=O)O)NC(=O)C(C)(C)NC(=O)[C@H](C)NC(=O)[C@H](C)NC(=O)[C@H](CCC(N)=O)NC(=O)[C@H](CCCCN)NC(=O)[C@H](CC(=O)O)NC(=O)[C@H](CC(C)C)NC(=O)[C@H](Cc1ccc(O)cc1)NC(=O)[C@@H](NC(=O)[C@H](CO)NC(=O)[C@H](Cc1ccc(O)cc1)NC(=O)[C@H](CC(=O)O)NC(=O)[C@H](CO)NC(=O)[C@@H](NC(=O)[C@H](Cc1ccccc1)NC(=O)[C@@H](NC(=O)CNC(=O)[C@H](CCC(=O)O)NC(=O)CSCC(=O)NCC(=O)N1CCCCC1)[C@@H](C)O)[C@@H](C)O)[C@@H](C)CC)C(C)C)C(N)=O)C(=O)O [Compound 226] |  |  | 89% | 1 to 10 nM | > 1000 nM |  | 100 to 1000 nM |  |  |  |  |  |  |  | 17% |  |  |  |  |  |
| CC[C@H](C)[C@H](NC(=O)[C@H](CO)NC(=O)[C@H](Cc1ccc(O)cc1)NC(=O)[C@H](CC(=O)O)NC(=O)[C@H](CO)NC(=O)[C@@H](NC(=O)[C@H](Cc1ccccc1)NC(=O)[C@@H](NC(=O)CNC(=O)[C@H](CCC(=O)O)NC(=O)C1(C(=O)NCCN2C(=O)CSC2=O)CCC1)[C@@H](C)O)[C@@H](C)O)C(=O)N[C@@H](Cc1ccc(O)cc1)C(=O)N[C@@H](CC(C)C)C(=O)N[C@@H](CC(=O)O)C(=O)N[C@@H](CCCCN)C(=O)N[C@@H](CCC(N)=O)C(=O)N[C@@H](C)C(=O)N[C@@H](C)C(=O)NC(C)(C)C(=O)N[C@@H](CCC(=O)O)C(=O)N[C@@H](Cc1ccccc1)C(=O)N[C@H](C(=O)N[C@@H](CC(N)=O)C(=O)N[C@@H](Cc1c[nH]c2ccccc12)C(=O)N[C@@H](CC(C)C)C(=O)N[C@@H](CC(C)C)C(=O)N[C@@H](C)C(=O)NCC(=O)NCC(=O)N1CCC[C@H]1C(=O)N[C@@H](CO)C(=O)N[C@@H](CO)C(=O)NCC(=O)N[C@@H](C)C(=O)N1CCC[C@H]1C(=O)N1CCC[C@H]1C(=O)N1CCC[C@H]1C(=O)N[C@@H](CO)C(=O)N[C@@H](CCCCN)C(N)=O)C(C)C [Compound 134] |  |  |  |  |  |  |  |  |  |  | 10 to 1000 nM | 10 to 100 nM | 10 to 100 nM |  |  | < 0.1 nM | 103-108% | 103 to 108% | < 0.1 nM | 30% |
